Reference: PubChem BioAssay AID1996
In brackets after ≈: the same amount, converted by molar mass.

Conditions: buffer; pH 7.4; 200.0 µM

| SMILES | solubility kinetic |
| --- | --- |
| Cc1cc(C(=O)CN2C(=O)NC(CC(C)C)C2=O)c(C)n1C1CC1 (centres undefined) | 22.7 µg/mL (≈ 68.5 µM) |
| CC1CCc2c(sc(NC(=O)c3cccn3C)c2C(N)=O)C1 (centres undefined) | 2.9 µg/mL (≈ 9.14 µM) |
| CCN(C(=O)CN1CCCCCC1)c1c(N)n(Cc2ccccc2)c(=O)[nH]c1=O | > 59.9 µg/mL |
| C=CCC1(CC=C)CCCN1Cc1nc(COc2ccccc2)no1 | 8.3 µg/mL (≈ 24.5 µM) |
| CN(CC(=O)Nc1ccc(F)cc1Cl)Cc1cccs1 | 14.6 µg/mL (≈ 46.7 µM) |
| Cc1cccc(OCCn2ccnc2)c1 | 20.9 µg/mL (≈ 103 µM) |
| CCOC(=O)CCCNC(=O)CSc1nc2ccc(OCC)cc2[nH]1 | 51.4 µg/mL (≈ 141 µM) |
| CCCc1cc(C(=O)Nc2ccc(F)c(Cl)c2)no1 | 1.5 µg/mL (≈ 5.31 µM) |
| CCOC(=O)C1(C(F)(F)F)N=C(c2ccccc2F)OC(N(C)C)=N1 (centres undefined) | 42.2 µg/mL (≈ 117 µM) |
| CC1(C)NC(=O)N(CC(=O)N2CCC(Cc3ccccc3)CC2)C1=O | 50.1 µg/mL (≈ 146 µM) |
| CC1=NN(C(N)=S)C(C)(C)C1 | > 25.7 µg/mL |
| NC(=O)C1CCN(S(=O)(=O)c2ccc3c(c2)OCCO3)CC1 | > 49 µg/mL |
| CCOC(=O)c1cc(C#N)c(SCC(=O)OC)[nH]c1=O | > 44.4 µg/mL |
| COCCNC(=S)N1CCC(C(=O)c2ccc(C)cc2)CC1 | 43.2 µg/mL (≈ 135 µM) |
| O=C(CCC1CCCN(C(=O)c2ccco2)C1)NCc1ccccc1F (centres undefined) | > 53.8 µg/mL |
| O=C(N/C(=C\c1ccco1)C(=O)N1CCCCC1)c1ccc([N+](=O)[O-])cc1 | 3.6 µg/mL (≈ 9.75 µM) |
| Nc1nnc(SCC(=O)NC2CCCCCCC2)s1 | > 45.1 µg/mL |
| CC1CCCCN1C(=O)c1cc(S(=O)(=O)N2CCOCC2)ccc1Cl (centres undefined) | > 58 µg/mL |
| CCOC(=O)N1CCN(C(=O)CNC(=O)c2ccccc2F)CC1 | > 50.6 µg/mL |
| COc1ccc(N2C(=O)CC(N3CCCCC3)C2=O)cc1 (centres undefined) | > 43.3 µg/mL |
| NC(=O)C1CCN(CCC(=O)Nc2ccc(F)c(F)c2)CC1 | > 46.7 µg/mL |
| Cc1ccc(C(=O)N2CC(=O)NC(=O)C2)cc1 | 29.6 µg/mL (≈ 127 µM) |
| Cn1ccnc1C(=O)c1cccc(Br)c1 | > 39.8 µg/mL |
| O=C1CC(=O)N(c2ccccc2F)C(=O)N1 | > 33.3 µg/mL |
| Cc1cc(N2CCCC2)ccc1C=C(C#N)C#N | 0.5 µg/mL (≈ 2.11 µM) |
| N/C(=N\OC(=O)C(c1ccccc1)c1ccccc1)c1ccncc1 | 47.5 µg/mL (≈ 143 µM) |
| CC(NC(=O)C12CC3CC(CC(O)(C3)C1)C2)c1ccccc1 (centres undefined) | > 44.9 µg/mL |
| CCOc1ccccc1C(=O)NCC(=O)N(C)Cc1cccnc1 | 44.8 µg/mL (≈ 137 µM) |

Other lines, results leading:

| solubility kinetic | SMILES |
| --- | --- |
| 7.4 µg/mL (≈ 18.3 µM) | COc1ccc(CNC(=O)COC(=O)c2ccc(C(=O)c3ccccc3)cc2)cc1 |
| 42.9 µg/mL | Cn1c(-c2ccccc2[N+](=O)[O-])[n+](C)c2ccccc21.[Cl-] |
| 0.3 µg/mL (≈ 1.09 µM) | Cc1ccccc1CNC(=O)Nc1ccc(Cl)cc1 |
| < 0.3 µg/mL | COc1ccc2oc(=N)c(C(=O)Nc3cccc(C)c3C)cc2c1 |
| < 0.7 µg/mL | CC(=O)c1cc2c(cc1NS(=O)(=O)c1ccc(F)cc1)OCO2 |
| > 59.2 µg/mL | COc1ccc(NC(=O)c2ccccc2NC(=O)C2CC=CCC2C(=O)O)cc1 (centres undefined) |
| 44.4 µg/mL (≈ 140 µM) | O=C(Nc1ccc(Cl)cc1)N1CCN(c2ncccn2)CC1 |
| 34 µg/mL (≈ 105 µM) | CCOc1ccc(-c2ncncc2-c2ccccc2OC)c(O)c1 |
| > 44 µg/mL | Cc1noc(-c2ccccc2)c1NC(=O)Nc1ccccc1 |
| 24.3 µg/mL (≈ 102 µM) | Cc1cccc(C2NC(=O)c3ccccc3O2)c1 (centres undefined) |
| 44.6 µg/mL (≈ 143 µM) | CC(=O)C(C)n1cnc2scc(-c3ccc(C)cc3)c2c1=O (centres undefined) |
| 36.9 µg/mL (≈ 135 µM) | Cc1ccccc1CC(=O)Nc1cc(C(C)(C)C)on1 |
| 4.6 µg/mL (≈ 14.3 µM) | O=C(Nc1ccc(C(F)(F)F)cc1)c1ccc2ncsc2c1 |
| > 45.8 µg/mL | CCC(=O)Nc1ccc(S(=O)(=O)Nc2ccccn2)cc1 |
| 42.7 µg/mL (≈ 114 µM) | CN(C(=O)COC(=O)c1ccccc1C(=O)c1ccccc1)c1ccccc1 |
| > 46.4 µg/mL | COc1ccc(CCC(=O)NCc2cn3ccccc3n2)cc1 |

| solubility kinetic | SMILES |
| --- | --- |
| 20 µg/mL (≈ 52.2 µM) | COc1ccc(/C=C/C(=O)OCC(=O)NCCCc2ccccc2)cc1OC |
| > 41.9 µg/mL | O=[N+]([O-])c1ccccc1S(=O)(=O)Nc1cccnc1 |
| 50.3 µg/mL (≈ 139 µM) | COC(=O)c1cc(S(=O)(=O)Nc2cccc(-c3cnco3)c2)oc1C |
| 1 µg/mL (≈ 2.55 µM) | Cc1cc(S(=O)(=O)Nc2ccc(C(=O)NCC3CCCO3)cc2)ccc1F (centres undefined) |
| 12.7 µg/mL (≈ 30.7 µM) | COc1ccc(CCNC(=O)COC(=O)/C=C/c2ccc3c(c2)OCO3)cc1OC |
| > 39.8 µg/mL | COC(=O)c1ccc(NC(=O)[C@H](C)NC(N)=O)cc1 |
| > 50 µg/mL | CC(NS(=O)(=O)c1ccccc1)C(=O)NCCc1ccccn1 (centres undefined) |
| 3.9 µg/mL (≈ 12.4 µM) | CSc1ccc(/C=C/C(=O)NC(=O)c2ccccc2O)cc1 |
| > 47.3 µg/mL | CN(C(=O)CSc1ccc2c(c1)OCCO2)c1ccccc1 |
| > 37.8 µg/mL | CCn1ccnc1C(O)c1cccc2ccccc12 (centres undefined) |
| > 46.6 µg/mL | Cc1nc(=O)c(-c2ccccc2)c(C)n1-c1ccccc1Cl |
| 17.2 µg/mL (≈ 48.3 µM) | O=C(Nc1cccc(C(=O)N2CCCc3ccccc32)c1)c1ccccc1 |
| > 59.6 µg/mL | Cc1noc(NS(=O)(=O)c2ccc(NC(=O)/C=C/c3ccccc3)cc2)c1C |
| 46.4 µg/mL (≈ 150 µM) | O=C(Nc1cc2c3c(c1)CC(=O)N3CCC2)c1ccccc1F |
| 32.3 µg/mL (≈ 113 µM) | N#CN/C(=N\S(=O)(=O)c1ccccc1)c1ccccc1 |
